We go through 2 molecules from patent US10316049B2, “Tank-binding kinase inhibitor compounds” (Gilead Sciences, Inc., priority 2015, dated 2019).

The target of one experiment is T1, TBK1 (Homo sapiens, UniProt Q9UHD2).
T1 construct: TBK1 and IKKε were expressed and purified as full length recombinant proteins; made in house
T1 sequence (Q9UHD2 1-729): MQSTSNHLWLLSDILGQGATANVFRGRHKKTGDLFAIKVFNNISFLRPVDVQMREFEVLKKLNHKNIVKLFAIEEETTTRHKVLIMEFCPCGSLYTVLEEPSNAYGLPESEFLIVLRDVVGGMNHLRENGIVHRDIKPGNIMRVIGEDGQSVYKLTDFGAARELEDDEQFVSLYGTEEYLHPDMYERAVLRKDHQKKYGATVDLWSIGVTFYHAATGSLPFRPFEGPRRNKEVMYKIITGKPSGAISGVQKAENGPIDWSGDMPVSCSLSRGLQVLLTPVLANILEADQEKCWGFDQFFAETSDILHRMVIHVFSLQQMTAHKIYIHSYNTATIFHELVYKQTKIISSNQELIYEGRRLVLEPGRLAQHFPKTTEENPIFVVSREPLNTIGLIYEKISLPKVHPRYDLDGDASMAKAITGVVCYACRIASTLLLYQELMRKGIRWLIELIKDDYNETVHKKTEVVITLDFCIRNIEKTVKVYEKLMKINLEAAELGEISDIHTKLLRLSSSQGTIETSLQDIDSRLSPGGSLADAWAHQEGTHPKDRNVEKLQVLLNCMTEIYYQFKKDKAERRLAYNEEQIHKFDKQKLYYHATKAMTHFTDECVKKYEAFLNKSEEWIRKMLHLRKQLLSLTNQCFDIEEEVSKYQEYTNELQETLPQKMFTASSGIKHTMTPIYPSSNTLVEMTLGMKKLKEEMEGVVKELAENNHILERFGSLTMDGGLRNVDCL
The experiment in a line: TR-FRET enzymatic activity assay, TBK1. Further: full length recombinant TBK1 at 2.5 nM. It counts as biochemical. In a few lines:
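Full-length recombinant enzymes phosphorylated a biotinylated Ser/Thr peptide for 240 min at 25 °C, stopped with EDTA. Phosphopeptide detected by TR-FRET (streptavidin XL665, Eu-cryptate anti-phospho antibody). IC50 from four-parameter fits normalized to 1 μM staurosporine and DMSO controls, as geometric means of at least four determinations.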

A further experiment addresses T2, IKKε (Homo sapiens, UniProt Q14164).
T2 construct: TBK1 and IKKε were expressed and purified as full length recombinant proteins; made in house
T2 sequence (Q14164 1-716): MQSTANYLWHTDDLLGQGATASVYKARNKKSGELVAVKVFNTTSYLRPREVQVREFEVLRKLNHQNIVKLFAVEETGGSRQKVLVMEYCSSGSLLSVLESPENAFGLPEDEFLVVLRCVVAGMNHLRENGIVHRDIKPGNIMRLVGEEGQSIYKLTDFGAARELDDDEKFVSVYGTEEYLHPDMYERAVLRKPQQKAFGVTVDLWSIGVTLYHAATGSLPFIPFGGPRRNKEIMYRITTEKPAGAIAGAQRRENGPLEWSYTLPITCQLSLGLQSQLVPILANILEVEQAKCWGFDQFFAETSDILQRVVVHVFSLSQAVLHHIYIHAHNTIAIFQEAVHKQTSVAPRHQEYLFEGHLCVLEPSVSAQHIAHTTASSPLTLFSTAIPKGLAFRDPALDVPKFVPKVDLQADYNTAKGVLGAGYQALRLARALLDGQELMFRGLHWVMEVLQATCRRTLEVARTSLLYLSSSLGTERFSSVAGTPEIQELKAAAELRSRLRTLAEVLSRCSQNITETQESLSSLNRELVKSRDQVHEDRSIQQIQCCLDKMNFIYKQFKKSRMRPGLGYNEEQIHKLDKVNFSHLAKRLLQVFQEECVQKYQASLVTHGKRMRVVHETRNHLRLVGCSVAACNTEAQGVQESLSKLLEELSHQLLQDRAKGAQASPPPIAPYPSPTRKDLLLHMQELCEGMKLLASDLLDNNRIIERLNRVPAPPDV
The experiment in a line: TR-FRET enzymatic activity assay, IKKε. Further: full length recombinant IKKε at 0.3 nM. To be noted: read-out: IKKϵ IC50. It counts as biochemical. In a few lines:
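Full-length recombinant IKKε phosphorylated a biotinylated Ser/Thr peptide for 240 min at 25 °C; EDTA stop. Phospho-peptide detected by TR-FRET with streptavidin-XL665 (125 nM) and Eu-cryptate anti-phospho antibody. Normalised to staurosporine and DMSO controls; IC50 from four-parameter fit, geometric mean of ≥4 runs.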

`N#Cc1cc(-c2ccnc(NC(=O)C3CC3)c2)ccc1O[C@H]1CCN(C(=O)[C@@H]2CCC(=O)N2)CC1(F)F` [Example 14, N-(4-(3-cyano-4-(((S)-3,3-difluoro-1-((S)-5-oxopyrrolidine-2-carbonyl)piperidin-4-yl)oxy)phenyl)pyridin-2-yl)cyclopropanecarboxamide]: the IC50 came to 0.0055 µM on TBK1 and 0.0185 µM on IKKε.

Consider `CO[C@H]1CCN(c2ccc(-c3ccnc(NC(=O)C4CC4)c3)cc2C#N)C1` [Example 94, (S)—N-(4-(3-cyano-4-(3-methoxypyrrolidin-1-yl)phenyl)pyridin-2-yl)cyclopropanecarboxamide], for which the 50% inhibitory concentration (IC50) on TBK1 was 0.12 µM; at IKKε, 0.195 µM.

As usually defined, the IC50 is the concentration at which inhibition is half-maximal.
